From article PMC9005681, “Use of AD Informer Set compounds to explore validity of novel targets in Alzheimer's disease pathology” (Alzheimer's & Dementia : Translational Research & Clinical …, 2022)
“And” between values parts separate entries of the source, which are not always exact repeats. Equal entries are not always repeated.

Columns and labels:
Test in all cases: PDSP GPCR panel primary binding assays at 10 μM
Details in all cases: primary assay
[1] = target: T1, cloned human or rodent CNS receptors, channels, and transporters (PDSP panel) (Homo sapiens, UniProt P08908)
T1 construct: expressed in transfected cells
T1 sequence (P08908 1-422): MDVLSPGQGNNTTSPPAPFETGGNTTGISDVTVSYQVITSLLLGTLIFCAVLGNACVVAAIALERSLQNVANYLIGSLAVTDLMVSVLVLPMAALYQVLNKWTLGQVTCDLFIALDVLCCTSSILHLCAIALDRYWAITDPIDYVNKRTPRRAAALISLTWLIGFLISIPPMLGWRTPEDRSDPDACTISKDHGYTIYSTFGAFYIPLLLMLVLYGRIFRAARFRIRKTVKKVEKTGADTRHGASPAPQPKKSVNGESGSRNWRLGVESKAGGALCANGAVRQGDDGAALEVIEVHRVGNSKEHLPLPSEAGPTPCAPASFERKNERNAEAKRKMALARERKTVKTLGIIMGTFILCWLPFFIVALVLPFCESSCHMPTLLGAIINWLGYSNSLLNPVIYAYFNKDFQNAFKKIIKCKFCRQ
Description: (§1) GPCR panel: Screening against the receptors within the PDSP panel offers an assessment of off-target pharmacological activity at cloned human or rodent CNS receptors, channels, and transporters that could confound CNS-related phenotypes. A total of 46–47 primary binding assays were run in quadruplicate on these compounds at 10 μM, with follow-up secondary binding assays in 11-point dose-response in triplicate for select compounds versus select receptors. Secondary binding assays were executed for all receptors where test compound displaced an average of >50% of radio-labeled standard ligand. As an exception, no secondary assays were carried out for H3, PBR, or GABAA. […]

[2] = target: T2, cloned human or rodent CNS receptors, channels, and transporters (PDSP panel) (Homo sapiens, UniProt P21728)
T2 construct: expressed in transfected cells
T2 sequence (P21728 whole entry): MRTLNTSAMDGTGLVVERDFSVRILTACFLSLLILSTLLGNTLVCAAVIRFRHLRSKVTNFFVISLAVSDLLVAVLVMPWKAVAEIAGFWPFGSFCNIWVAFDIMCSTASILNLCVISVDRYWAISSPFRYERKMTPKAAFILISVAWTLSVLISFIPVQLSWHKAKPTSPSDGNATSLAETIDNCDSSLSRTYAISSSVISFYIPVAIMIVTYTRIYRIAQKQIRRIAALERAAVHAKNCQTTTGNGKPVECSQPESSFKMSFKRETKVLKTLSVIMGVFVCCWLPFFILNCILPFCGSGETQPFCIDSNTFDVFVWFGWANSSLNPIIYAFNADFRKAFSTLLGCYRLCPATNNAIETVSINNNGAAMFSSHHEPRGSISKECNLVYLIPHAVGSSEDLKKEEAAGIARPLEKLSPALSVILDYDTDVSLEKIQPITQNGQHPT
Description: as §1

[3] = target: T3, cloned human or rodent CNS receptors, channels, and transporters (PDSP panel) (Homo sapiens, UniProt P21918)
T3 construct: expressed in transfected cells
T3 sequence (P21918 whole entry): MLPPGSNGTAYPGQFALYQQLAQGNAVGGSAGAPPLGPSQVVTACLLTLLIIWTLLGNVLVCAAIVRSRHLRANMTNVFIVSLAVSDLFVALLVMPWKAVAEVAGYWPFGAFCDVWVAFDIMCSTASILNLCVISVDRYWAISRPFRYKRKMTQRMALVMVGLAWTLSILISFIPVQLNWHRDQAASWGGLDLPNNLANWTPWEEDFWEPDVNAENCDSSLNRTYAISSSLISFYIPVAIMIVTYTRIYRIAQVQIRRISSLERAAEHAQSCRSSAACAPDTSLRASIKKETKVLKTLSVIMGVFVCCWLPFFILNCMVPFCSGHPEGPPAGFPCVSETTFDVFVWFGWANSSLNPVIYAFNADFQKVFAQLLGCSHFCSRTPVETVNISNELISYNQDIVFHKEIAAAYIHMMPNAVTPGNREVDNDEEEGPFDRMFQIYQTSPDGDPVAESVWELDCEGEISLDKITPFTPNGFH
Description: as §1

[4] = target: T4, cloned human or rodent CNS receptors, channels, and transporters (PDSP panel) (Homo sapiens, UniProt P23975)
T4 construct: expressed in transfected cells
T4 sequence (P23975 whole entry): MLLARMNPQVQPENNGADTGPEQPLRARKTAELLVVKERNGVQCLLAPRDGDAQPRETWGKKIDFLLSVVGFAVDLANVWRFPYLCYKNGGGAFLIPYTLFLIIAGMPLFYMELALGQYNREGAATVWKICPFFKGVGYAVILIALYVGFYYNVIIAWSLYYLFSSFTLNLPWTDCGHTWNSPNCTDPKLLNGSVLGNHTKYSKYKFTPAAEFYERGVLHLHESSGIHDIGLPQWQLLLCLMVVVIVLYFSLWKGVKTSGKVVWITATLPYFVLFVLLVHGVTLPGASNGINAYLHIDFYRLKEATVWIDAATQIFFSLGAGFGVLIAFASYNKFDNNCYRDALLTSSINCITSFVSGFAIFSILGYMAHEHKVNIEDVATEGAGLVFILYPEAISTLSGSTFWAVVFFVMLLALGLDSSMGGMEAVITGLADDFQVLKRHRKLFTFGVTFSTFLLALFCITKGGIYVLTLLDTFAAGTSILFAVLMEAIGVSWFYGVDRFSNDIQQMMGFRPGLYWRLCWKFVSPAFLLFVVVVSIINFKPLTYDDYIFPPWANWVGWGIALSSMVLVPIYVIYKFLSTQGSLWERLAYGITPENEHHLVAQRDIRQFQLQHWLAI
Description: as §1

[5] = target: T5, cloned human or rodent CNS receptors, channels, and transporters (PDSP panel) (Homo sapiens, UniProt P25100)
T5 construct: expressed in transfected cells
T5 sequence (P25100 1-572): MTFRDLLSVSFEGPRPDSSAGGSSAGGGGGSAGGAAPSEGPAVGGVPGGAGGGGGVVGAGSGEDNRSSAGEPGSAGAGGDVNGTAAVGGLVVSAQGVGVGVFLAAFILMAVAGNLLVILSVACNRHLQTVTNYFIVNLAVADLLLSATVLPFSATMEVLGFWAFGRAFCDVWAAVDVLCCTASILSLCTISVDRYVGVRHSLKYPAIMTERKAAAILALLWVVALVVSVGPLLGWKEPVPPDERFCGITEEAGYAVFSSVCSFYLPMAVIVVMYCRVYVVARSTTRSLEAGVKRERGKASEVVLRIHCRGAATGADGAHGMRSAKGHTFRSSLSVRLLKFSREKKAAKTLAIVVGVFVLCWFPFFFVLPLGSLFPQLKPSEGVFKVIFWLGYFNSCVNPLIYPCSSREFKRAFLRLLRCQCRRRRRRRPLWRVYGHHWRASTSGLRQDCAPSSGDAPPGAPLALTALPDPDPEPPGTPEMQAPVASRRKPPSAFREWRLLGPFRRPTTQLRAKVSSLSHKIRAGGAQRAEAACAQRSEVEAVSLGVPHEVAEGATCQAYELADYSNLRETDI
Description: as §1

[6] = target: T6, cloned human or rodent CNS receptors, channels, and transporters (PDSP panel) (Homo sapiens, UniProt P28222)
T6 construct: expressed in transfected cells
T6 sequence (P28222 whole entry): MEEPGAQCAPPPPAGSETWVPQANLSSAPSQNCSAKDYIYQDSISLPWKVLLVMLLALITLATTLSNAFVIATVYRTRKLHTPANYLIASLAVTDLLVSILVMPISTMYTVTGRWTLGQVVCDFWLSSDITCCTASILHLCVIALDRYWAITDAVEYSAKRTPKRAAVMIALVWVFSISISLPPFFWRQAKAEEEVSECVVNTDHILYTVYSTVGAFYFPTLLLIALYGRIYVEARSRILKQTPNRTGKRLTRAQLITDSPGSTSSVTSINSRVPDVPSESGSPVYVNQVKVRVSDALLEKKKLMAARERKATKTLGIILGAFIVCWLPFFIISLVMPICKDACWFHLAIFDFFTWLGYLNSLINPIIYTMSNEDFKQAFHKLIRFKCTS
Description: as §1

[7] = target: T7, cloned human or rodent CNS receptors, channels, and transporters (PDSP panel) (Homo sapiens, UniProt P28335)
T7 construct: expressed in transfected cells
T7 sequence (P28335 33-458): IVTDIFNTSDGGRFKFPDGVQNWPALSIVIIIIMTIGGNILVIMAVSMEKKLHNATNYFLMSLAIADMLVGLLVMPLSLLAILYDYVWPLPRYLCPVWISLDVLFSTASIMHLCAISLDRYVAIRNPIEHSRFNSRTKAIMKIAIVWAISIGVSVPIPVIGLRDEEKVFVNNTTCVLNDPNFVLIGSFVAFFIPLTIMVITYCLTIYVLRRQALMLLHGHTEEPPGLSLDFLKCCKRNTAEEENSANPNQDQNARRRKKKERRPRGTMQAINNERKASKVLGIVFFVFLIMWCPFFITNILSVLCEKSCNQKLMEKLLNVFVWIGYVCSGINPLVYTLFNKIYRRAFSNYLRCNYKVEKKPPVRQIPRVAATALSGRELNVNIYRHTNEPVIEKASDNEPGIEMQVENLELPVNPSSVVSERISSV
Description: as §1

[8] = target: T8, cloned human or rodent CNS receptors, channels, and transporters (PDSP panel) (Homo sapiens, UniProt P31645)
T8 construct: expressed in transfected cells
T8 sequence (P31645 whole entry): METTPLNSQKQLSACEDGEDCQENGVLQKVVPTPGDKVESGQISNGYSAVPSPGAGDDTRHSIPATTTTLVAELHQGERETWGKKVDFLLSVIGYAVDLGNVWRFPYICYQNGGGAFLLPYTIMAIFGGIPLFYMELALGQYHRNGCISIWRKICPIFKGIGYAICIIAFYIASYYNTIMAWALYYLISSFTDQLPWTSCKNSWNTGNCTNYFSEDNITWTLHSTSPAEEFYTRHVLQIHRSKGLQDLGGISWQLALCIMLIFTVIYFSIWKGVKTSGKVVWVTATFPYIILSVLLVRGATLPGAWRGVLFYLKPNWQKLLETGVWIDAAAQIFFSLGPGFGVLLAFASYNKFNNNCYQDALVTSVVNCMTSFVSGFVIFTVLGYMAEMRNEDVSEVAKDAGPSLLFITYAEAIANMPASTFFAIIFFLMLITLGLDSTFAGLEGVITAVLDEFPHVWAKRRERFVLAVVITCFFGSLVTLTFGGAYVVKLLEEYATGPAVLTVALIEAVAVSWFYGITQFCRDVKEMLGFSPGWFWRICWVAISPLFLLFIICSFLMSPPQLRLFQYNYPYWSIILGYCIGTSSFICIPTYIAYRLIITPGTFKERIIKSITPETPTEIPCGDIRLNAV
Description: as §1

[9] = target: T9, cloned human or rodent CNS receptors, channels, and transporters (PDSP panel) (Homo sapiens, UniProt P41595)
T9 construct: expressed in transfected cells
T9 sequence (P41595 whole entry): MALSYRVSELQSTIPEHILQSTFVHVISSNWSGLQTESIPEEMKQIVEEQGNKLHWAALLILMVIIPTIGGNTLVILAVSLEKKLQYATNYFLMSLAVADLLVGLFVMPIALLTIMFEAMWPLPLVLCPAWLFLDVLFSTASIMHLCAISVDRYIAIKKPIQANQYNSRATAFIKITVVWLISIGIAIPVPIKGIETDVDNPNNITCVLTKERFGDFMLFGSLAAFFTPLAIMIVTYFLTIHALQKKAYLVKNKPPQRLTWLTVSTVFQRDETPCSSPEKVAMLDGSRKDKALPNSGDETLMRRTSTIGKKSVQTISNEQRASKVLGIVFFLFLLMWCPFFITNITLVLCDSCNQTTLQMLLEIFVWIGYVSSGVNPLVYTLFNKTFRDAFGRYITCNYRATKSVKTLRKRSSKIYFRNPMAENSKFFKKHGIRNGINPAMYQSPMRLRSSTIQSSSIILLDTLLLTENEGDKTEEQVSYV
Description: as §1

`CCCCNc1ncc2c(-c3ccc(CN4CCN(C)CC4)cc3)cn([C@H]3CC[C@H](O)CC3)c2n1` [UNC2025C, UNC2025] was tested, and the “Inhibition 1” value ([1]; Receptor 5-HT1A, 10 μM) was 9.39%, the “Inhibition 2” value ([1]; Receptor 5-HT1A, 10 μM) was -18.53% and the “Inhibition 3” value ([1]; Receptor 5-HT1A, 10 μM) was 19.05%. The “Inhibition 4” value ([1]; Receptor 5-HT1A, 10 μM) was 31.46%, the Mean % ([1]; Receptor 5-HT1A, 10 μM, mean of Inhibition 1-4) was 10.34% and the “Inhibition 1” value ([2]; Receptor D1, 10 μM) was 18.86%. For the same molecule, the “Inhibition 2” value ([2]; Receptor D1, 10 μM) was -8.82%, the “Inhibition 3” value ([2]; Receptor D1, 10 μM) was 17.73% and the “Inhibition 4” value ([2]; Receptor D1, 10 μM) was 11.41%. The Mean % ([2]; Receptor D1, 10 μM, mean of Inhibition 1-4) was 9.8%, the “Inhibition 1” value ([3]; Receptor D5, 10 μM) was 6.22% and the “Inhibition 2” value ([3]; Receptor D5, 10 μM) was 2.13%. The “Inhibition 3” value ([3]; Receptor D5, 10 μM) was 5.78%, the “Inhibition 4” value ([3]; Receptor D5, 10 μM) was 14.39% and the Mean % ([3]; Receptor D5, 10 μM, mean of Inhibition 1-4) was 7.13%. For the same molecule, the “Inhibition 1” value ([4]; Receptor NET, 10 μM) was 67.05% and 40.06%, the “Inhibition 2” value ([4]; Receptor NET, 10 μM) was 52.92% and 42.04% and the “Inhibition 3” value ([4]; Receptor NET, 10 μM) was 47% and 40.28%. For the same molecule, the “Inhibition 4” value ([4]; Receptor NET, 10 μM) was 46.05% and 54.77%, the Mean % ([4]; Receptor NET, 10 μM, mean of Inhibition 1-4) was 53.26% and 44.29% and the “Inhibition 1” value ([5]; Receptor Alpha1D, 10 μM) was 50.98%. The “Inhibition 2” value ([5]; Receptor Alpha1D, 10 μM) was 57.37%, the “Inhibition 3” value ([5]; Receptor Alpha1D, 10 μM) was 48.7% and the “Inhibition 4” value ([5]; Receptor Alpha1D, 10 μM) was 44.3%. For the same molecule, the Mean % ([5]; Receptor Alpha1D, 10 μM, mean of Inhibition 1-4) was 50.34%, the “Inhibition 1” value ([6]; Receptor 5-HT1B, 10 μM) was 31.06% and the “Inhibition 2” value ([6]; Receptor 5-HT1B, 10 μM) was 11.01%. For the same molecule, the “Inhibition 3” value ([6]; Receptor 5-HT1B, 10 μM) was 10.42%, the “Inhibition 4” value ([6]; Receptor 5-HT1B, 10 μM) was 12.97% and the Mean % ([6]; Receptor 5-HT1B, 10 μM, mean of Inhibition 1-4) was 16.37%. The “Inhibition 1” value ([7]; Receptor 5-HT2C, 10 μM) was 29.45%, the “Inhibition 2” value ([7]; Receptor 5-HT2C, 10 μM) was 46.13% and the “Inhibition 3” value ([7]; Receptor 5-HT2C, 10 μM) was 31.41%. For the same molecule, the “Inhibition 4” value ([7]; Receptor 5-HT2C, 10 μM) was 26.99%, the Mean % ([7]; Receptor 5-HT2C, 10 μM, mean of Inhibition 1-4) was 33.5% and the “Inhibition 1” value ([8]; Receptor SERT, 10 μM) was 82.19% and 71%. For the same molecule, the “Inhibition 2” value ([8]; Receptor SERT, 10 μM) was 70.62% and 68.78%, the “Inhibition 3” value ([8]; Receptor SERT, 10 μM) was 68.77% and 67.79% and the “Inhibition 4” value ([8]; Receptor SERT, 10 μM) was 72.64% and 73.98%. For the same molecule, the Mean % ([8]; Receptor SERT, 10 μM, mean of Inhibition 1-4) was 73.56% and 70.39%, the “Inhibition 1” value ([9]; Receptor 5-HT2B, 10 μM) was 1.21% and the “Inhibition 2” value ([9]; Receptor 5-HT2B, 10 μM) was 8.76%. For the same molecule, the “Inhibition 3” value ([9]; Receptor 5-HT2B, 10 μM) was -7.6%, the “Inhibition 4” value ([9]; Receptor 5-HT2B, 10 μM) was 18.41% and the Mean % ([9]; Receptor 5-HT2B, 10 μM, mean of Inhibition 1-4) was 5.2%.
For `CCC(=O)N1CCC(NC(=O)Nc2ccc(OC(F)(F)F)cc2)CC1` [UNC10302681A, TPPU], the Mean % ([1]; 5-HT1A, mean inhibition) was 6.94%, the “Inhibition 1” value ([1]; 5-HT1A, replicate 1) was 9.39% and the “Inhibition 2” value ([1]; 5-HT1A, replicate 2) was 25.6%. For the same molecule, the “Inhibition 3” value ([1]; 5-HT1A, replicate 3) was 0.78%, the “Inhibition 4” value ([1]; 5-HT1A, replicate 4) was -8.02% and the Mean % ([2]; D1, mean inhibition) was -1.82%. For the same molecule, the “Inhibition 1” value ([2]; D1, replicate 1) was -5.26%, the “Inhibition 2” value ([2]; D1, replicate 2) was -2.83% and the “Inhibition 3” value ([2]; D1, replicate 3) was -3.8%. The “Inhibition 4” value ([2]; D1, replicate 4) was 4.61%, the Mean % ([3]; D5, mean inhibition) was -7.53% and the “Inhibition 1” value ([3]; D5, replicate 1) was -6.27%. The “Inhibition 2” value ([3]; D5, replicate 2) was -1.22%, the “Inhibition 3” value ([3]; D5, replicate 3) was -4.28% and the “Inhibition 4” value ([3]; D5, replicate 4) was -18.34%. For the same molecule, the Mean % ([4]; NET, mean inhibition) was 2.26% and 4.05%, the “Inhibition 1” value ([4]; NET, replicate 1) was -18.41% and 34.38% and the “Inhibition 2” value ([4]; NET, replicate 2) was -17.53% and 14.34%. The “Inhibition 3” value ([4]; NET, replicate 3) was 0.52% and -19%, the “Inhibition 4” value ([4]; NET, replicate 4) was 44.45% and -13.54% and the Mean % ([5]; Alpha1D, mean inhibition) was -10.94%. For the same molecule, the “Inhibition 1” value ([5]; Alpha1D, replicate 1) was -5.01%, the “Inhibition 2” value ([5]; Alpha1D, replicate 2) was -6% and the “Inhibition 3” value ([5]; Alpha1D, replicate 3) was -20.78%. The “Inhibition 4” value ([5]; Alpha1D, replicate 4) was -11.97%, the Mean % ([6]; 5-HT1B, mean inhibition) was -0.64% and the “Inhibition 1” value ([6]; 5-HT1B, replicate 1) was 7.08%. For the same molecule, the “Inhibition 2” value ([6]; 5-HT1B, replicate 2) was 0.59%, the “Inhibition 3” value ([6]; 5-HT1B, replicate 3) was -3.14% and the “Inhibition 4” value ([6]; 5-HT1B, replicate 4) was -7.08%. For the same molecule, the Mean % ([7]; 5-HT2C, mean inhibition) was -8.1%, the “Inhibition 1” value ([7]; 5-HT2C, replicate 1) was 3.44% and the “Inhibition 2” value ([7]; 5-HT2C, replicate 2) was -10.8%. The “Inhibition 3” value ([7]; 5-HT2C, replicate 3) was -1.96%, the “Inhibition 4” value ([7]; 5-HT2C, replicate 4) was -23.07% and the “Inhibition 1” value ([8]; SERT, replicate 1) was 16.43% and 21.37%. The “Inhibition 2” value ([8]; SERT, replicate 2) was -9.69% and 21.48%, the “Inhibition 3” value ([8]; SERT, replicate 3) was 7.05% and 21.19% and the “Inhibition 4” value ([8]; SERT, replicate 4) was 4.97% and 21.78%. For the same molecule, the Mean % ([9]; 5-HT2B, mean inhibition) was 40.75%, the “Inhibition 1” value ([9]; 5-HT2B, replicate 1) was 68.75% and the “Inhibition 2” value ([9]; 5-HT2B, replicate 2) was 29.73%. For the same molecule, the “Inhibition 3” value ([9]; 5-HT2B, replicate 3) was 25.12% and the “Inhibition 4” value ([9]; 5-HT2B, replicate 4) was 39.38%.
